Reference: patent publication US20080262066A1, “Azole Derivatives as Cannabinoid CB1 Receptor Antagonists” (Green Cross Corporation, priority 2007, published 2008)

Each compound was assayed against T1, rat CB-1 receptor (Rattus norvegicus, UniProt P20272) (assay: rat CB-1 receptor binding protocol with [3H]CP-55940 on SD rat brain tissue). Details: [3H]CP-55940 displacement, SD rat brain homogenate, 30° C., 60 min.
T1 construct: The tissue obtained from the brain of SD rats was homogenized; from tissue; host or cells: SD rat brain (membrane pellet of homogenate)
T1 sequence (P20272 whole entry): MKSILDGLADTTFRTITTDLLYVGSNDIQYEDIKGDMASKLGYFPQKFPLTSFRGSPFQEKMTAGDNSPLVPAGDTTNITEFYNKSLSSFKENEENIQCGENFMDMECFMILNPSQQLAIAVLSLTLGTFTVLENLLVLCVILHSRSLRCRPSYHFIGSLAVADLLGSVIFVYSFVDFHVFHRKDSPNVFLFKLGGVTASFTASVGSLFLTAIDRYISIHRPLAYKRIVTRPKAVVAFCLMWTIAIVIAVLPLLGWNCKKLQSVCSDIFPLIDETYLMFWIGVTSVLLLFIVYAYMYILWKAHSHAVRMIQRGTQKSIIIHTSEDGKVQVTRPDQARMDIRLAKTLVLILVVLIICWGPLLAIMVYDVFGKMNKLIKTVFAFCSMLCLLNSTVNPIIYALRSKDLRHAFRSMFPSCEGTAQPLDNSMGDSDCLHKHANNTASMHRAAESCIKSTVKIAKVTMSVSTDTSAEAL
Description: The tissue obtained from the brain of SD rats was homogenized with a Dounce homogenate system in TME (50 mM Tris, 3 mM MgCl2 and 1 mM EDTA, pH 7.4) at 4° C., and the homogenate was centrifuged at 48,000 g for 30 min. at 4° C. The pellet was resuspended in 5 ml of TME and the suspension was divided into aliquots and stored at −70° C. until its use in the following assay.
The tissue concentrations were determined by Bradford protein analysis, and 148 μl of brain tissue of the required concentration was added to the plate. The plate was covered and placed in a 30° C. incubator for 60 min, and then transformed on GF/B filtermat pretreated in polyethylenimine (PEI) using a cell harvester. Each filter was washed five times and dried at 60° C. for 1 hr. Then, the degree of radioactivity retained by the filter was measured using Wallac Microbeta™ (PerkinElmer Life Sciences, Inc., Massachusetts, U.S.A.) and the activity of the compound for inhibiting CB1 receptor was determined therefrom.

| SMILES | IC50 (binding affinity for CB1 receptor) |
| --- | --- |
| Cc1c(C(=O)NC(=O)NCC2CCCCC2)nn(-c2ccc(Cl)cc2Cl)c1-c1ccc(Cl)cc1 [Example 18, 5-(4-Chlorophenyl)-N-(cyclohexylmethylcarbamoyl)-1-(2,4-dichlorophenyl)-4-methyl-1H-pyrazole-3-carboxamide] | insoluble |
| Cc1c(C(=O)NC(=O)NC(C)(C)C)nn(-c2ccc(Cl)cc2Cl)c1-c1ccc(Cl)cc1 [Example 20, N-(tert-butylcarbamoyl)-5-(4-chlorophenyl)-1-(2,4-dichlorophenyl)-4-methyl-1H-pyrazole-3-carboxamide] | insoluble |

Same assay, conditions: [3H]CP-55940 displacement, SD rat brain homogenate, 30° C., 60 min; read-out: IC50 (binding affinity for CB1 receptor)

| SMILES | IC50 [µM] |
| --- | --- |
| CCC(CC)C(=O)NC(=O)c1nn(-c2ccc(Cl)cc2Cl)c(-c2ccc(Cl)cc2)c1C [Example 1, 5-(4-Chlorophenyl)-1-(2,4-dichlorophenyl)-N-(2-ethylbutanoyl)-4-methyl-1H-pyrazole-3-carboxamide] | 0.0248 |
| Cc1c(C(=O)NC(=O)C2CC2)nn(-c2ccc(Cl)cc2Cl)c1-c1ccc(Cl)cc1 [Example 2, 5-(4-Chlorophenyl)-N-(cyclopropanecarbonyl)-1-(2,4-dichlorophenyl)-4-methyl-1H-pyrazole-3-carboxamide] | 0.124 |
| Cc1c(C(=O)NC(=O)C2CCC2)nn(-c2ccc(Cl)cc2Cl)c1-c1ccc(Cl)cc1 [Example 3, 5-(4-Chlorophenyl)-N-(cyclobutanecarbonyl)-1-(2,4-dichlorophenyl)-4-methyl-1H-pyrazole-3-carboxamide] | 0.127 |
| Cc1c(C(=O)NC(=O)C2CCCC2)nn(-c2ccc(Cl)cc2Cl)c1-c1ccc(Cl)cc1 [Example 4, 5-(4-Chlorophenyl)-N-(cyclopentanecarbonyl)-1-(2,4-dichlorophenyl)-4-methyl-1H-pyrazole-3-carboxamide] | 0.0672 |
| Cc1c(C(=O)NC(=O)C2CCCCC2)nn(-c2ccc(Cl)cc2Cl)c1-c1ccc(Cl)cc1 [Example 5, 5-(4-Chlorophenyl)-N-(cyclohexanecarbonyl)-1-(2,4-dichlorophenyl)-4-methyl-1H-pyrazole-3-carboxamide] | 0.0304 |
| CC(=O)NC(=O)c1nn(-c2ccc(Cl)cc2Cl)c(-c2ccc(Cl)cc2)c1C [Example 6, N-Acetyl-5-(4-chlorophenyl)-1-(2,4-dichlorophenyl)-4-methyl-1H-pyrazole-3-carboxamide] | 0.383 |
| CCCC(=O)NC(=O)c1nn(-c2ccc(Cl)cc2Cl)c(-c2ccc(Cl)cc2)c1C [Example 7, N-Butyryl-5-(4-chlorophenyl)-1-(2,4-dichlorophenyl)-4-methyl-1H-pyrazole-3-carboxamide] | 0.0437 |
| CCCCCC(=O)NC(=O)c1nn(-c2ccc(Cl)cc2Cl)c(-c2ccc(Cl)cc2)c1C [Example 8, 5-(4-Chlorophenyl)-1-(2,4-dichlorophenyl)-N-hexanoyl-4-methyl-1H-pyrazole-3-carboxamide] | 0.0335 |
| Cc1c(C(=O)NC(=O)C(C)C)nn(-c2ccc(Cl)cc2Cl)c1-c1ccc(Cl)cc1 [Example 9, 5-(4-Chlorophenyl)-1-(2,4-dichlorophenyl)-N-isobutyryl-4-methyl-1H-pyrazole-3-carboxamide] | 0.161 |
| Cc1c(C(=O)NC(=O)C(C)(C)C)nn(-c2ccc(Cl)cc2Cl)c1-c1ccc(Cl)cc1 [Example 10, 5-(4-Chlorophenyl)-1-(2,4-dichlorophenyl)-4-methyl-N-pivaloyl-1H-pyrazole-3-carboxamide] | 0.0327 |
| CCC(C)(C)C(=O)NC(=O)c1nn(-c2ccc(Cl)cc2Cl)c(-c2ccc(Cl)cc2)c1C [Example 11, 5-(4-Chlorophenyl)-1-(2,4-dichlorophenyl)-N-(2,2-dimethylbutanoyl)-4-methyl-1H-pyrazole-3-carboxamide] | 0.0212 |
| Cc1c(C(=O)NC(=O)CC(C)(C)C)nn(-c2ccc(Cl)cc2Cl)c1-c1ccc(Cl)cc1 [Example 12, 5-(4-Chlorophenyl)-1-(2,4-dichlorophenyl)-N-(3,3-dimethylbutanoyl)-4-methyl-1H-pyrazole-3-carboxamide] | 0.0534 |
| CCCC(CCC)C(=O)NC(=O)c1nn(-c2ccc(Cl)cc2Cl)c(-c2ccc(Cl)cc2)c1C [Example 13, 5-(4-Chlorophenyl)-1-(2,4-dichlorophenyl)-4-methyl-N-(2-propylpentanoyl)-1H-pyrazole-3-carboxamide] | 0.0269 |
| CCCCC(CC)C(=O)NC(=O)c1nn(-c2ccc(Cl)cc2Cl)c(-c2ccc(Cl)cc2)c1C (centres unmarked) [Example 14, 5-(4-Chlorophenyl)-1-(2,4-dichlorophenyl)-N-(2-ethylhexanoyl)-4-methyl-1H-pyrazole-3-carboxamide] | 0.0431 |
| CCCCCCNC(=O)NC(=O)c1nn(-c2ccc(Cl)cc2Cl)c(-c2ccc(Cl)cc2)c1C [Example 15, 5-(4-Chlorophenyl)-1-(2,4-dichlorophenyl)-N-(hexylcarbamoyl)-4-methyl-1H-pyrazole-3-carboxamide] | 0.138 |
| Cc1c(C(=O)NC(=O)NC2CCCCC2)nn(-c2ccc(Cl)cc2Cl)c1-c1ccc(Cl)cc1 [Example 16, 5-(4-Chlorophenyl)-N-(cyclohexylcarbamoyl)-1-(2,4-dichlorophenyl)-4-methyl-1H-pyrazole-3-carboxamide] | 0.39 |
| Cc1c(C(=O)NC(=O)NC2CCCCCC2)nn(-c2ccc(Cl)cc2Cl)c1-c1ccc(Cl)cc1 [Example 17, 5-(4-Chlorophenyl)-N-(cycloheptylcarbamoyl)-1-(2,4-dichlorophenyl)-4-methyl-1H-pyrazole-3-carboxamide] | 0.75 |
| Cc1c(C(=O)NC(=O)NC(C)C)nn(-c2ccc(Cl)cc2Cl)c1-c1ccc(Cl)cc1 [Example 19, 5-(4-Chlorophenyl)-1-(2,4-dichlorophenyl)-N-(isopropylcarbamoyl)-4-methyl-1H-pyrazole-3-carboxamide] | 0.253 |
| Cc1c(C(=O)NC(=O)NCc2ccccc2)nn(-c2ccc(Cl)cc2Cl)c1-c1ccc(Cl)cc1 [Example 22, N-(Benzylcarbamoyl)-5-(4-chlorophenyl)-1-(2,4-dichlorophenyl)-4-methyl-1H-pyrazole-3-carboxamide] | 0.146 |
| Cc1c(C(=O)NC(=O)OCc2ccccc2)nn(-c2ccc(Cl)cc2Cl)c1-c1ccc(Cl)cc1 [Example 23, Benzyl 5-(4-chlorophenyl)-1-(2,4-dichlorophenyl)-4-methyl-1H-pyrazole-3-carbonylcarbamate] | 0.0178 |
| CCCCOC(=O)NC(=O)c1nn(-c2ccc(Cl)cc2Cl)c(-c2ccc(Cl)cc2)c1C [Example 24, Butyl 5-(4-chlorophenyl)-1-(2,4-dichlorophenyl)-4-methyl-1H-pyrazole-3-carbonylcarbamate] | 0.0997 |
| Cc1c(C(=O)NC(=O)OC(C)(C)C)nn(-c2ccc(Cl)cc2Cl)c1-c1ccc(Cl)cc1 [Example 25, tert-Butyl 5-(4-chlorophenyl)-1-(2,4-dichlorophenyl)-4-methyl-1H-pyrazole-3-carbonylcarbamate] | 0.0825 |
| Cc1c(C(=O)NC(=O)OCC(C)(C)C)nn(-c2ccc(Cl)cc2Cl)c1-c1ccc(Cl)cc1 [Example 26, Neopentyl 5-(4-chlorophenyl)-1-(2,4-dichlorophenyl)-4-methyl-1H-pyrazole-3-carbonylcarbamate] | 0.363 |

Same assay, conditions: [3H]CP-55940 displacement, SD rat brain homogenate; read-out: IC50 (binding affinity for CB1 receptor)

| SMILES | IC50 [µM] |
| --- | --- |
| Cc1c(C(=O)NC(=O)Nc2ccccc2)nn(-c2ccc(Cl)cc2Cl)c1-c1ccc(Cl)cc1 [Example 21, 5-(4-Chlorophenyl)-1-(2,4-dichlorophenyl)-4-methyl-N-(phenylcarbamoyl)-1H-pyrazole-3-carboxamide] | > 10 |
